Target: Kv7.2/7.3 (Homo sapiens, UniProt O43525+O43526)
Experiment: Kv7.2/7.3 Thallium Flux Assay
Format: cell-based
Parameters: host or cells: HEK cells, tetracycline-inducible expression
Conditions: read-out: Kv7.2/7.3 Activity: EC50 of Kv7.2/Kv7.3 activation
Description: The Thallium Flux Assay is used as a surrogate indicator of potassium channel activity.
The experimental protocol was adapted from the FluxOR™ II Green Potassium Ion Channel Assay User Guide (Pub. No. MAN0016084, Invitrogen). Conditions were optimized for the Kv7.2/7.3 cell line.
The hKV7.2/7.3 cell line was obtained from Chantest (Cleveland, Ohio 44128) cat. #CT6147.
Kv7.2/7.3 cells were maintained in a media containing DMEM/F12; 50/50 (GIBCO cat. #11330), 10% Fetal Bovine Serum (FBS) (GIBCO cat. #26140), 100 units/mL Penicillin-Streptomycin (GIBCO cat. #15140), 0.005 mg/ml Blasticidin (SIGMA 15205), 0.5 mg/mL Geneticin (GIBCO cat. #10131), and 0.1 mg/mL Zeocin (GIBCO cat. #R25001). One day prior to experimentation, cells were plated in 96 well clear bottom plates (Corning cat. #353219) in a media without Blasticidin, Geneticin, or Zeocin. Channel expression was induced by adding tetracycline (Bioline cat. #BIO87030) at a final concentration of 10 ng/mL.
The test compound is diluted in a mixture of 0.1% DMSO/extracellular solution with an eight-point concentration range from 0.014 μM to 30 μM. Serial dilutions were made on a Biomek NXP (BECKMAN COULTER).
Measurement and Data Analysis:
A plate reader (Enspire, Perkin Elmer) is used to characterize the ion-channel modulating properties of novel compounds using an excitation wavelength of 475 nm and an emission wavelength of 530 nm. After a 15 sec baseline measurement, the stimulus buffer containing thallium and potassium is injected. A final endpoint measure is taken after 90 sec. Responses are normalized to positive control (retigabine, 30 µM max). Mean normalized responses at each concentration tested are fit to the standard Hill equation to generate an EC50 and maximal response.

EC50 [nM]	Structure (SMILES)
< 1000	COc1cc(C#N)cc2c1nc(NC(=O)CC1CC(F)(F)C1(F)F)n2C(C)(C)C (single isomer, unassigned) [Example 506, N-(1-(tert-butyl)-6-cyano-4-methoxy-1H-benzo[d]imidazol-2-yl)-2-(2,2,3,3-tetrafluorocyclobutyl)acetamide]
1000 to 3000	CC(C(=O)Nc1nc2c(F)cc(C(C)(C)O)cc2n1C1CCC1)C1(C(F)(F)F)CC1 (single isomer, unassigned) [Example 508, N-(1-cyclobutyl-4-fluoro-6-(2-hydroxypropan-2-yl)-1H-benzo[d]imidazol-2-yl)-2-(1-(trifluoromethyl)cyclopropyl)propanamide]
< 1000	CC(C)(C)n1c(NC(=O)CC2CC(F)(F)C2(F)F)nc2ccc(F)c(F)c21 (single isomer, unassigned) [Example 509, N-(1-(tert-butyl)-6,7-difluoro-1H-benzo[d]imidazol-2-yl)-2-(2,2,3,3-tetrafluorocyclobutyl)acetamide]
< 1000	CC1(n2c(NC(=O)CC3CC(F)(F)C3(F)F)nc3c(F)cc(C#N)cc32)CCC1 (single isomer, unassigned) [Example 512, N-(6-cyano-4-fluoro-1-(1-methylcyclobutyl)-1H-benzo[d]imidazol-2-yl)-2-(2,2,3,3-tetrafluorocyclobutyl)acetamide]
< 1000	CC1(n2c(NC(=O)CC3CC(F)(F)C3(F)F)nc3ccc(F)c(F)c32)CCC1 (single isomer, unassigned) [Example 513, N-(6,7-difluoro-1-(1-methylcyclobutyl)-1H-benzo[d]imidazol-2-yl)-2-(2,2,3,3-tetrafluorocyclobutyl)acetamide]
< 1000	CC(C(=O)Nc1nc2c(F)cc(C(C)(C)O)cc2n1C1CCC1)C(C)(C)C(F)(F)F (single isomer, unassigned) [Example 515, N-(1-cyclobutyl-4-fluoro-6-(2-hydroxypropan-2-yl)-1H-benzo[d]imidazol-2-yl)-4,4,4-trifluoro-2,3,3-trimethylbutanamide]

Continued, compound first:

Structure (SMILES)	EC50 [nM]
CC(C)(C)n1c(NC(=O)CC2CC(F)(F)C2(F)F)nc2c(F)cc(C#N)c(F)c21 (single isomer, unassigned) [Example 496, N-(1-(tert-butyl)-6-cyano-4,7-difluoro-1H-benzo[d]imidazol-2-yl)-2-(2,2,3,3-tetrafluorocyclobutyl)acetamide]	< 1000
CC(C(=O)Nc1nc2c(F)cc(C(C)(C)O)cc2n1C1CCC1)C1(C(F)(F)F)CC1 (single isomer, unassigned) [Example 497, N-(1-cyclobutyl-4-fluoro-6-(2-hydroxypropan-2-yl)-1H-benzo[d]imidazol-2-yl)-2-(1-(trifluoromethyl)cyclopropyl)propanamide]	< 1000
CC1(n2c(NC(=O)CC3CC(F)(F)C3(F)F)nc3cc(F)c(F)cc32)CCC1 (single isomer, unassigned) [Example 499, N-(5,6-difluoro-1-(1-methylcyclobutyl)-1H-benzo[d]imidazol-2-yl)-2-(2,2,3,3-tetrafluorocyclobutyl)acetamide]	< 1000
CC(C)(O)c1cc(F)c2nc(NC(=O)CC3CC(F)(F)C3(F)F)n(C3(C)CCC3)c2c1 (single isomer, unassigned) [Example 500, N-(4-fluoro-6-(2-hydroxypropan-2-yl)-1-(1-methylcyclobutyl)-1H-benzo[d]imidazol-2-yl)-2-(2,2,3,3-tetrafluorocyclobutyl)acetamide]	< 1000
CC(C(=O)Nc1nc2c(F)cc(C#N)cc2n1C1(C)CCC1)C1(C(F)(F)F)CC1 (single isomer, unassigned) [Example 503, N-(6-cyano-4-fluoro-1-(1-methylcyclobutyl)-1H-benzo[d]imidazol-2-yl)-2-(1-(trifluoromethyl)cyclopropyl)propanamide]	< 1000
CC1(n2c(NC(=O)CC3CC(F)(F)C3(F)F)nc3c(F)cc(C#N)c(F)c32)CCC1 (single isomer, unassigned) [Example 504, N-(6-cyano-4,7-difluoro-1-(1-methylcyclobutyl)-1H-benzo[d]imidazol-2-yl)-2-(2,2,3,3-tetrafluorocyclobutyl)acetamide]	< 1000
